Laboratory results published in patent US20070026026A1 (priority 2005, published 2007).

Tests used:
[1] = Example 2.2 A stability of losartan potassium in SPB with propylene glycol at 50° C. (HPLC); assay type: physicochemical; conditions: for degradation: after more than 1 month (816 hours) at 50° C.
Experimental: X represents the amount in mL of SPB added to provide 10 mL. […] Each formulation was evaluated by HPLC. The samples were then stored at 50° C. for about 1 month and analyzed periodically.

[2] = Example 1.1 solubility of losartan potassium with and without buffering agent (visual); assay type: physicochemical; conditions: for solubility: thermodynamic from solid, visual
Experimental: After 24 hours, the samples were examined. […] Formulations at these pHs of about 7 or greater should prevent precipitation of the drug.

[3] = Another study (not described): PG and PEG 400 effect on stability of losartan potassium; assay type: physicochemical
Description: Therefore, in one embodiment PG is preferred over PEG 400.

[4] = Example 2.1 stability of losartan potassium in phosphate buffers at 50° C. (HPLC); assay type: physicochemical; conditions: for stability (percent active on a weight basis): 50° C.; for degradation of the original losartan: pH 7.4
Experimental: The three variables were the pH of the buffer, cation of the buffer, and concentration of the phosphate salt in the buffer. The pHs studied were 7.4 and 8.2; the cations studied were potassium and sodium; and the concentrations studied were 10 mM and 100 mM.
The materials used were sodium phosphate buffer (SPB) and potassium phosphate buffer (PPB) prepared in-house and losartan potassium. […] A sample of each solution was taken and analyzed by HPLC. The different solutions were then stored at 50° C. […] The stability (measured as percent active on a weight

[5] = Example 2.3 stability of saccharin-containing compositions at 50° C. (HPLC); assay type: physicochemical; conditions: for stability of losartan (percent active): saccharin sodium, 50° C.
Experimental: Two different concentrations of glycerin (30 percent and 40 percent by volume) and 2 different pHs of the phosphate buffer (7.4 and 8.2) were studied. Four different compositions that contained saccharin were prepared and analyzed. The materials used were losartan potassium; saccharin sodium; propylene glycol (PG); glycerin; and potassium phosphate buffer (PPB) prepared in-house. […] Three mL of PG were then added to the vortexed mixture, (17-X) mL of glycerin added, and this mixture vortexed for 2 minutes. X represents the amount in mL of PPB added to provide 17 mL. Each sample was then stored at 50° C. and evaluated by HPLC periodically.

[6] = cited from earlier work
[7] = Example 2.2 C stability with PG, glycerin and xylitol at 50° C. (HPLC); assay type: physicochemical; conditions: after about 1 month at 50° C.
Experimental: Even with 30 percent glycerin present, in some embodiments it is desired to add additional sweetener as the composition may not be sweet enough for some patients. Accordingly, a stronger sweetener was considered for use in the composition. […] Thus, the stability of a composition of propylene glycol (PG), glycerin, and xylitol was studied and evaluated. […] PG (1.5 mL) was then added, this mixture was vortexed for 1 minute, 3 mL of glycerin was added, and this mixture was finally vortexed for 1 minute. […] Four different formulations were prepared and analyzed. Each sample was evaluated by HPLC. The samples were then stored at 50° C. for about 1 month and analyzed periodically.

[8] = Example 2.2 B stability with PG and glycerin or PG and PEG 400 at 50° C. (HPLC); assay type: physicochemical; conditions: for degradation: after 816 hours at 50° C.
Experimental: X represents the amount in mL of SPB added to provide 8.5 mL. […] Five different formulations were prepared and analyzed. Each sample was evaluated by HPLC. The samples were then stored at 50° C. for about 1 month and analyzed periodically.

[9] = Example 1.2 solubility of losartan potassium in sodium phosphate buffers by HPLC; assay type: physicochemical; conditions: for solubility at 0 h / solubility at 48 h / solubility at 480 h: sodium phosphate buffer, aqueous buffer, thermodynamic from solid, room temperature, HPLC
Description: The materials used were sodium phosphate buffer (SPB) prepared in-house and losartan potassium. […] A sample of each solution was then taken and analyzed by HPLC. […] Each sample was stored at room temperature and data was collected as a function of time.

## CCCCc1nc(Cl)c(CO)n1Cc1ccc(-c2ccccc2-c2nnn[nH]2)cc1.[K] [losartan potassium, 2-butyl-4-chloro-1-[p-(o-1H-tetrazol-5-ylphenyl)benzyl]imidazole-5-methanol monopotassium salt]
[1]; 10 percent PG in SPB pH 7.2
  degradation: less than 0.4%
[1]; 15 percent PG in SPB pH 7.2
  degradation: less than 0.4%
[1]; 30 percent PG in SPB pH 7.2, 50° C.
  stability in words: unexpectedly good
[2]; SPB pH 6.2, stored at 50° C. overnight, examined after 24 hours
  crystals after storage of the solubility sample: crystals were observed
[2]; organic solvent or mixture, Ethanol
  solubility: 130 mg/mL
[2]; sodium phosphate buffer, aqueous buffer, SPB 10 mM, pH 1.9
  solubility: 0.048 mg/mL
[2]; sodium phosphate buffer, aqueous buffer, SPB 10 mM, pH 6.2
  solubility: > 241 mg/mL
[2]; sodium phosphate buffer, aqueous buffer, SPB 10 mM, pH 7.2
  solubility: 300 mg/mL
[2]; sodium phosphate buffer, aqueous buffer, SPB 10 mM, pH 8.2
  solubility: > 253 mg/mL
[2]; Water, pH 5.5
  solubility: > 243 mg/mL
[2]; water with HCl, aqueous buffer, Water + HCl, pH 2.1
  solubility: 0.28 mg/mL
[2]; water with NaOH, aqueous buffer, Water + NaOH, pH 11.8
  solubility: > 239 mg/mL
[3]; in SPB
  effect of PEG 400 on stability: improve the stability
  effect of PG on stability: improve the stability
[3]; in water
  effect of PEG 400 on stability: did not improve the stability
[4]; PPB, 10 mM, pH = 7.4, 0 hours
  stability (percent active on a weight basis): 99.93%
[4]; PPB, 10 mM, pH = 7.4, 24 hours
  stability (percent active on a weight basis): 99.90%
[4]; PPB, 10 mM, pH = 7.4, 264 hours
  stability (percent active on a weight basis): 99.14%
[4]; PPB, 10 mM, pH = 7.4, 672 hours
  stability (percent active on a weight basis): 98.74%
[4]; PPB, 100 mM, pH = 7.4, 0 hours
  stability (percent active on a weight basis): 99.93%
[4]; PPB, 100 mM, pH = 7.4, 24 hours
  stability (percent active on a weight basis): 99.90%
[4]; PPB, 100 mM, pH = 7.4, 264 hours
  stability (percent active on a weight basis): 99.32%
[4]; PPB, 100 mM, pH = 7.4, 672 hours
  stability (percent active on a weight basis): 98.84%
[4]; SPB 10 mM, after about 1 month at 50° C.
  degradation of the original losartan: around 1.5%
[4]; SPB 100 mM, after about 1 month at 50° C.
  degradation of the original losartan: about 1%
[4]; SPB, 10 mM, pH = 7.4, 0 hours
  stability (percent active on a weight basis): 99.96%
[4]; SPB, 10 mM, pH = 7.4, 24 hours
  stability (percent active on a weight basis): 99.90%
[4]; SPB, 10 mM, pH = 7.4, 264 hours
  stability (percent active on a weight basis): 99.12%
[4]; SPB, 10 mM, pH = 7.4, 672 hours
  stability (percent active on a weight basis): 98.49%
[4]; SPB, 10 mM, pH = 8.2, 0 hours
  stability (percent active on a weight basis): 99.93%
[4]; SPB, 10 mM, pH = 8.2, 24 hours
  stability (percent active on a weight basis): 99.91%
[4]; SPB, 10 mM, pH = 8.2, 264 hours
  stability (percent active on a weight basis): 99.68%
[4]; SPB, 10 mM, pH = 8.2, 672 hours
  stability (percent active on a weight basis): 99.59%
[4]; SPB, 100 mM, pH = 7.4, 0 hours
  stability (percent active on a weight basis): 99.93%
[4]; SPB, 100 mM, pH = 7.4, 24 hours
  stability (percent active on a weight basis): 99.90%
[4]; SPB, 100 mM, pH = 7.4, 264 hours
  stability (percent active on a weight basis): 99.34%
[4]; SPB, 100 mM, pH = 7.4, 672 hours
  stability (percent active on a weight basis): 98.90%
[4]; SPB, 100 mM, pH = 8.2, 0 hours
  stability (percent active on a weight basis): 99.93%
[4]; SPB, 100 mM, pH = 8.2, 24 hours
  stability (percent active on a weight basis): 99.91%
[4]; SPB, 100 mM, pH = 8.2, 264 hours
  stability (percent active on a weight basis): 99.77%
[4]; SPB, 100 mM, pH = 8.2, 672 hours
  stability (percent active on a weight basis): 99.66%
[4]; SPB, pH of 8.2, after about 1 month at 50° C.
  degradation: about 0.4%
[5]; 30% glycerin, PPB pH = 7.4, PG, 0 hour
  stability of losartan (percent active): 99.88%
[5]; 30% glycerin, PPB pH = 7.4, PG, 72 hours
  stability of losartan (percent active): 99.91%
[5]; 30% glycerin, PPB pH = 7.4, PG, 288 hours
  stability of losartan (percent active): 99.88%
[5]; 30% glycerin, PPB pH = 7.4, PG, 1152 hours
  stability of losartan (percent active): 99.65%
[5]; 30% glycerin, PPB pH = 8.2, PG, 0 hour
  stability of losartan (percent active): 99.88%
[5]; 30% glycerin, PPB pH = 8.2, PG, 72 hours
  stability of losartan (percent active): 99.88%
[5]; 30% glycerin, PPB pH = 8.2, PG, 288 hours
  stability of losartan (percent active): 99.89%
[5]; 30% glycerin, PPB pH = 8.2, PG, 1152 hours
  stability of losartan (percent active): 99.86%
[5]; 40% glycerin, PPB pH = 7.4, PG, 0 hour
  stability of losartan (percent active): 99.88%
[5]; 40% glycerin, PPB pH = 7.4, PG, 72 hours
  stability of losartan (percent active): 99.88%
[5]; 40% glycerin, PPB pH = 7.4, PG, 288 hours
  stability of losartan (percent active): 99.88%
[5]; 40% glycerin, PPB pH = 7.4, PG, 1152 hours
  stability of losartan (percent active): 99.73%
[5]; 40% glycerin, PPB pH = 8.2, PG, 0 hour
  stability of losartan (percent active): 99.88%
[5]; 40% glycerin, PPB pH = 8.2, PG, 72 hours
  stability of losartan (percent active): 99.88%
[5]; 40% glycerin, PPB pH = 8.2, PG, 288 hours
  stability of losartan (percent active): 99.92%
[5]; 40% glycerin, PPB pH = 8.2, PG, 1152 hours
  stability of losartan (percent active): 99.82%
[5]; saccharin-containing compositions, after 12 days (288 hours) and even at 1152 hours at 50° C.
  degradation in words: Minimal degradation
[6]
  solubility in alcohols: soluble
  solubility in chloroform: practically insoluble
  solubility in common organic solvents, such as acetonitrile and methylethyl ketone: slightly soluble
  solubility in water: freely soluble
[7]; 5 mg/mL, 1 percent xylitol
  degradation: about 0.45%
[7]; 5 mg/mL, 2 percent xylitol
  degradation: about 0.5%
[7]; 25 mg/mL, 1 percent xylitol
  degradation: approximately 0.7%
[7]; 25 mg/mL, 2 percent xylitol
  degradation: approximately 0.7%
[8]; SPB with 15 percent PG and 10 percent PEG 400
  degradation: 0.33%
[8]; SPB with 15 percent PG and up to 30 percent glycerin
  degradation: less than 0.5%
[8]; increasing PEG 400 to 30 percent in the composition, 50° C.
  effect on stability in words: decreased the stability
[9]; SPB pH of 6.2
  precipitation on storage: some re-precipitation was observed
[9]; pH under 6.2
  solubility in words: practically insoluble
[9]; pHs of 7.4 and higher
  precipitation on storage: no precipitation was observed
[9]; SPB pH = 1.7
  solubility at 0 h: 1070 µg/mL
  solubility at 48 h: 152 µg/mL
  solubility at 480 h: 30 µg/mL
[9]; SPB pH = 6.2
  solubility at 0 h: 1620 µg/mL
  solubility at 48 h: 1650 µg/mL
  solubility at 480 h: 60 µg/mL
[9]; SPB pH = 7.4
  solubility at 0 h: > 250000 µg/mL
  solubility at 48 h: > 250000 µg/mL
  solubility at 480 h: > 250000 µg/mL
[9]; SPB pH = 8.2
  solubility at 0 h: > 250000 µg/mL
  solubility at 48 h: > 250000 µg/mL
  solubility at 480 h: > 250000 µg/mL
